Starred links: 1 amine or outer side, 2 acyl side, 3 side chain; linkers in the order of their positions; H or OH if unused. Positions of bridges follow the written chain, without caps; N, C: chain ends. Non-standard residues stand in square brackets, D forms with d. Residues, ends and D or L forms follow the SMILES beside them. Ala(1H-tetrazol-5-yl) = N[C@@H](Cc1nnn[nH]1)C(=O)O; Trp(7-aza) = N[C@@H](Cc1c[nH]c2ncccc12)C(=O)O; mXylylene = c1cc(C[*:1])cc(C[*:2])c1; dPhg = N[C@@H](C(=O)O)c1ccccc1; Chg = N[C@H](C(=O)O)C1CCCCC1; Phg = N[C@H](C(=O)O)c1ccccc1; Tle = CC(C)(C)[C@H](N)C(=O)O; Nva = CCC[C@H](N)C(=O)O
Each molecule was assayed against C5 (Homo sapiens, UniProt P01031) (assay: Human hemolysis assay (RBC lysis assay using complete human sera)). Conditions: inhibition of lysis of antibody-sensitized sheep erythrocytes, complete human sera.
C5, sequence (P01031 19-1676): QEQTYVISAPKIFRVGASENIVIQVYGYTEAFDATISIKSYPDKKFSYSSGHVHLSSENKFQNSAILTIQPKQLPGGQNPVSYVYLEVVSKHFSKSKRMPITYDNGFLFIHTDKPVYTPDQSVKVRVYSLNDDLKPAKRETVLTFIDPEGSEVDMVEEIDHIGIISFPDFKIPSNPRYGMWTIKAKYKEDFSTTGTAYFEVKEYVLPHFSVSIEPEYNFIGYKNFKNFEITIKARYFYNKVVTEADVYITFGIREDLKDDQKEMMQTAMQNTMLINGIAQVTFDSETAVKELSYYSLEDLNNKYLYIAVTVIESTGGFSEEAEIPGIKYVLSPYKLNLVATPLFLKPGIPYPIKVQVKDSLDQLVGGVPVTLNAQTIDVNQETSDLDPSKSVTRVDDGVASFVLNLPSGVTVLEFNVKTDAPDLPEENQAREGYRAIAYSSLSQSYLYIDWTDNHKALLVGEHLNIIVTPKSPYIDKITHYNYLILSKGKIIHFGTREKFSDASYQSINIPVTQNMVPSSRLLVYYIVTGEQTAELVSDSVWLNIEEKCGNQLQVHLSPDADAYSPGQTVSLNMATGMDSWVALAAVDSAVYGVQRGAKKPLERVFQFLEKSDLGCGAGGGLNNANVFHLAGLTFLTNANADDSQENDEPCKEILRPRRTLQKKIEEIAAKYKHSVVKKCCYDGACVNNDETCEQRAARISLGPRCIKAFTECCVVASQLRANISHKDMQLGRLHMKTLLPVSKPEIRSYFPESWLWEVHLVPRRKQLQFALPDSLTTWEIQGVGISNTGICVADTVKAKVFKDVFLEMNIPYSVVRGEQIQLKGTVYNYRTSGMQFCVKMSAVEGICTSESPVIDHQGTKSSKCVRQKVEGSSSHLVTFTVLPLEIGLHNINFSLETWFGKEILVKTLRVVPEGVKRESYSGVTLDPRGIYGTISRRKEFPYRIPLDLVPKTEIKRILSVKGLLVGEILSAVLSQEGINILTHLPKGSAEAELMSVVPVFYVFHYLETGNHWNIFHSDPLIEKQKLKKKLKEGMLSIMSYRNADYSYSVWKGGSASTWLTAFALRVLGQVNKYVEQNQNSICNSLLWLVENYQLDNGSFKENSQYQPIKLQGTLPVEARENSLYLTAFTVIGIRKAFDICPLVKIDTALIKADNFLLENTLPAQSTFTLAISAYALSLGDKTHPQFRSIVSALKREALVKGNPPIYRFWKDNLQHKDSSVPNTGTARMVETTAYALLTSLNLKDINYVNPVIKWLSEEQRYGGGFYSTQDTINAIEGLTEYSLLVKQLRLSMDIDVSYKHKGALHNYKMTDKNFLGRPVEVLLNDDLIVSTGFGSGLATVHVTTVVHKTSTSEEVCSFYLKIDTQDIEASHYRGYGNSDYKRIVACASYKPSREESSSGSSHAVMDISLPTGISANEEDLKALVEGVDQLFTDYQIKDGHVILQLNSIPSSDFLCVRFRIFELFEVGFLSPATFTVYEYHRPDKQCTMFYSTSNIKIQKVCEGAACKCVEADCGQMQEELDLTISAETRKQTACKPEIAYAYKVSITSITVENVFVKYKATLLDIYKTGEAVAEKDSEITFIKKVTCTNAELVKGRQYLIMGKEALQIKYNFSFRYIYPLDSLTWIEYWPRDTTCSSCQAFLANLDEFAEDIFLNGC
Type: cell-based
Set-up: with complete human sera (Complement Technology, Tyler Tex.) and polypeptides; tissue Complement Technology, Tyler Tex; host or cells: complete human serum
CCC[C@H](NC(=O)[C@@H](NC(=O)[C@@H]1CCCN1C(=O)[C@H](Cc1ccc(O)cc1)NC(=O)[C@H](CCC(=O)O)NC(=O)[C@H](Cc1c[nH]c2ncccc12)NC(=O)[C@H](Cc1ccc(O)cc1)NC(=O)[C@@H](NC(=O)[C@H](CC(=O)O)NC(=O)[C@@H]1CSCc2cccc(c2)CSC[C@H](NC(C)=O)C(=O)N[C@@H](C(C)C)C(=O)N[C@@H](C)C(=O)N[C@@H](CCCNC(=N)N)C(=O)N[C@@H](Cc2ccccc2)C(=O)N1)C(C)(C)C)c1ccccc1)C(N)=O [Compound R3150, [mXylyl(1,6)]Ac-C-V-A-R-F-C-D-Tbg-Y-azaTrp-E-Y-P-Phg-Nvl-NH2] (Ac-CVARFCD[Tle]Y[Trp(7-aza)]EYP[Phg][Nva]-NH2; linker 1-6 via mXylylene) was tested, and the IC50 was 37 nM.
CCC[C@H](NC(=O)[C@H](NC(=O)[C@@H]1CCCN1C(=O)[C@H](Cc1ccc(O)cc1)NC(=O)[C@H](CCC(=O)O)NC(=O)[C@H](Cc1c[nH]c2ncccc12)NC(=O)[C@H](Cc1ccc(O)cc1)NC(=O)[C@@H](NC(=O)[C@H](CC(=O)O)NC(=O)[C@@H]1CSCc2cccc(c2)CSC[C@H](NC(C)=O)C(=O)N[C@@H](C(C)C)C(=O)N[C@@H](C)C(=O)N[C@@H](CCCNC(=N)N)C(=O)N[C@@H](Cc2ccccc2)C(=O)N1)C(C)(C)C)c1ccccc1)C(N)=O [Compound R3151, [mXylyl(1,6)]Ac-C-V-A-R-F-C-D-Tbg-Y-azaTrp-E-Y-P-(D-Phg)-Nvl-NH2] (Ac-CVARFCD[Tle]Y[Trp(7-aza)]EYP[dPhg][Nva]-NH2; linker 1-6 via mXylylene) showed an IC50 of 165 nM.
Molecule CCC[C@H](NC(=O)[C@@H](NC(=O)[C@@H]1CCCN1C(=O)[C@H](Cc1ccc(O)cc1)NC(=O)[C@H](CCC(=O)O)NC(=O)[C@H](Cc1c[nH]c2ncccc12)NC(=O)[C@H](Cc1ccc(O)cc1)NC(=O)[C@@H](NC(=O)[C@H](CC(=O)O)NC(=O)[C@@H]1CSCc2cccc(c2)CSC[C@H](NC(C)=O)C(=O)N[C@@H](C(C)C)C(=O)N[C@@H](CCC(=O)O)C(=O)N[C@@H](C)C(=O)N[C@@H](Cc2ccccc2)C(=O)N1)C(C)(C)C)c1ccccc1)C(N)=O [Compound R3153, [mXylyl(1,6)]Ac-C-V-E-A-F-C-D-Tba-Y-azaTrp-E-Y-P-Phg-Nvl-NH2] (Ac-CVEAFCD[Tle]Y[Trp(7-aza)]EYP[Phg][Nva]-NH2; linker 1-6 via mXylylene) has an IC50 of 175 nM.
CCC[C@H](NC(=O)[C@H](NC(=O)[C@@H]1CCCN1C(=O)[C@H](Cc1ccc(O)cc1)NC(=O)[C@H](CCC(=O)O)NC(=O)[C@H](Cc1c[nH]c2ncccc12)NC(=O)[C@H](Cc1ccc(O)cc1)NC(=O)[C@@H](NC(=O)[C@H](CC(=O)O)NC(=O)[C@@H]1CSCc2cccc(c2)CSC[C@H](NC(C)=O)C(=O)N[C@@H](C(C)C)C(=O)N[C@@H](CCC(=O)O)C(=O)N[C@@H](C)C(=O)N[C@@H](Cc2ccccc2)C(=O)N1)C(C)(C)C)c1ccccc1)C(N)=O [Compound R3154, [mXylyl(1,6)]Ac-C-V-E-A-F-C-D-Tbg-Y-azaTrp-E-Y-P-(D-Phg)-Nvl-NH2] (Ac-CVEAFCD[Tle]Y[Trp(7-aza)]EYP[dPhg][Nva]-NH2; linker 1-6 via mXylylene) gave an IC50 of 592 nM.
Work on CCC[C@H](NC(=O)[C@@H](NC(=O)[C@@H]1CCCN1C(=O)[C@H](Cc1ccc(O)cc1)NC(=O)[C@H](CCC(=O)O)NC(=O)[C@H](Cc1c[nH]c2ncccc12)NC(=O)[C@H](Cc1ccc(O)cc1)NC(=O)[C@@H](NC(=O)[C@H](CC(=O)O)NC(=O)[C@@H]1CSCc2cccc(c2)CSC[C@H](NC(C)=O)C(=O)N[C@@H](C(C)C)C(=O)N[C@@H](CCC(=O)O)C(=O)N[C@@H](CCCNC(=N)N)C(=O)N[C@@H](C)C(=O)N1)C(C)(C)C)c1ccccc1)C(N)=O [Compound R3155, [mXylyl(1,6)]Ac-C-V-E-R-A-C-D-Tbg-Y-azaTrp-E-Y-P-Phg-Nvl-NH2] (Ac-CVERACD[Tle]Y[Trp(7-aza)]EYP[Phg][Nva]-NH2; linker 1-6 via mXylylene) yielded an IC50 of 1530 nM.
In the case of CCC[C@H](NC(=O)[C@H](NC(=O)[C@@H]1CCCN1C(=O)[C@H](Cc1ccc(O)cc1)NC(=O)[C@H](CCC(=O)O)NC(=O)[C@H](Cc1c[nH]c2ncccc12)NC(=O)[C@H](Cc1ccc(O)cc1)NC(=O)[C@@H](NC(=O)[C@H](CC(=O)O)NC(=O)[C@@H]1CSCc2cccc(c2)CSC[C@H](NC(C)=O)C(=O)N[C@@H](C(C)C)C(=O)N[C@@H](CCC(=O)O)C(=O)N[C@@H](CCCNC(=N)N)C(=O)N[C@@H](C)C(=O)N1)C(C)(C)C)c1ccccc1)C(N)=O [Compound R3156, [mXylyl(1,6)]Ac-C-V-E-R-A-C-D-Tbg-Y-azaTrp-E-Y-P-(D-Phg)-Nvl-NH2] (Ac-CVERACD[Tle]Y[Trp(7-aza)]EYP[dPhg][Nva]-NH2; linker 1-6 via mXylylene), the IC50 is reported as > 10000 nM.
With CCC[C@H](NC(=O)[C@@H](NC(=O)[C@@H]1CCCN1C(=O)[C@H](Cc1ccc(O)cc1)NC(=O)[C@H](CCC(=O)O)NC(=O)[C@H](Cc1c[nH]c2ncccc12)NC(=O)[C@H](Cc1ccc(O)cc1)NC(=O)[C@@H](NC(=O)[C@H](C)NC(=O)[C@@H]1CSCc2cccc(c2)CSC[C@H](NC(C)=O)C(=O)N[C@@H](C(C)C)C(=O)N[C@@H](CCC(=O)O)C(=O)N[C@@H](CCCNC(=N)N)C(=O)N[C@@H](Cc2ccccc2)C(=O)N1)C(C)(C)C)c1ccccc1)C(N)=O [Compound R3157, [mXylyl(1,6)]Ac-C-V-E-R-F-C-A-Tbg-Y-azaTrp-E-Y-P-Phg-Nvl-NH2] (Ac-CVERFCA[Tle]Y[Trp(7-aza)]EYP[Phg][Nva]-NH2; linker 1-6 via mXylylene) the IC50 was 84.5 nM.
CCC[C@H](NC(=O)[C@H](NC(=O)[C@@H]1CCCN1C(=O)[C@H](Cc1ccc(O)cc1)NC(=O)[C@H](CCC(=O)O)NC(=O)[C@H](Cc1c[nH]c2ncccc12)NC(=O)[C@H](Cc1ccc(O)cc1)NC(=O)[C@@H](NC(=O)[C@H](C)NC(=O)[C@@H]1CSCc2cccc(c2)CSC[C@H](NC(C)=O)C(=O)N[C@@H](C(C)C)C(=O)N[C@@H](CCC(=O)O)C(=O)N[C@@H](CCCNC(=N)N)C(=O)N[C@@H](Cc2ccccc2)C(=O)N1)C(C)(C)C)c1ccccc1)C(N)=O [Compound R3158, [mXylyl(1,6)]Ac-C-V-E-R-F-C-A-Tbg-Y-azaTrp-E-Y-P-(D-Phg)-Nvl-NH2] (Ac-CVERFCA[Tle]Y[Trp(7-aza)]EYP[dPhg][Nva]-NH2; linker 1-6 via mXylylene) was tested, and the IC50 was 327 nM.
Molecule CC(=O)N[C@H]1CSCc2cccc(c2)CSC[C@@H](C(=O)N[C@@H](CC(=O)O)C(=O)N[C@H](C(=O)N[C@@H](Cc2ccc(O)cc2)C(=O)N[C@@H](Cc2c[nH]c3ncccc23)C(=O)N[C@@H](CCC(=O)O)C(=O)N[C@@H](Cc2ccc(O)cc2)C(=O)N2CCC[C@H]2C(=O)N[C@H](C(=O)N[C@@H](CCCCN)C(N)=O)c2ccccc2)C(C)(C)C)NC(=O)[C@H](Cc2ccccc2)NC(=O)[C@H](CCCNC(=N)N)NC(=O)[C@H](CCC(=O)O)NC(=O)[C@H](C)NC1=O [Compound R3161, [mXylyl(1,6)]Ac-C-A-E-R-F-C-D-Tbg-Y-azaTrp-E-Y-P-Phg-K-NH2] has an IC50 of 7 nM.
CC(=O)N[C@H]1CSCc2cccc(c2)CSC[C@@H](C(=O)N[C@@H](CC(=O)O)C(=O)N[C@H](C(=O)N[C@@H](Cc2ccc(O)cc2)C(=O)N[C@@H](Cc2c[nH]c3ncccc23)C(=O)N[C@@H](CCC(=O)O)C(=O)N[C@@H](Cc2ccc(O)cc2)C(=O)N2CCC[C@H]2C(=O)N[C@@H](C(=O)N[C@@H](CCCCN)C(N)=O)c2ccccc2)C(C)(C)C)NC(=O)[C@H](Cc2ccccc2)NC(=O)[C@H](CCCNC(=N)N)NC(=O)[C@H](CCC(=O)O)NC(=O)[C@H](C)NC1=O [Compound R3162, [mXylyl(1,6)]Ac-C-A-E-R-F-C-D-Tbg-Y-azaTrp-E-Y-P-(D-Phg)-K-NH2] was tested, and the IC50 was 16.5 nM.
In the case of CCCCCCCCCCCC(=O)NCCCC[C@H](NC(=O)[C@@H](NC(=O)[C@@H]1CCCN1C(=O)[C@H](Cc1ccc(O)cc1)NC(=O)[C@H](CCC(=O)O)NC(=O)[C@H](Cc1c[nH]c2ncccc12)NC(=O)[C@H](Cc1ccc(O)cc1)NC(=O)[C@@H](NC(=O)[C@H](CC(=O)O)NC(=O)[C@@H]1CSCc2cccc(c2)CSC[C@H](NC(C)=O)C(=O)N[C@@H](C)C(=O)N[C@@H](CCC(=O)O)C(=O)N[C@@H](CCCNC(=N)N)C(=O)N[C@@H](Cc2ccccc2)C(=O)N1)C(C)(C)C)c1ccccc1)C(N)=O [Compound R3164, [mXylyl(1,6)]Ac-C-A-E-R-F-C-D-Tbg-Y-azaTrp-E-Y-P-Phg-(Lys-C12)-NH2], the IC50 is reported as 36 nM.
Molecule CCCCCCCC(=O)NCCCC[C@H](NC(=O)[C@@H](NC(=O)[C@@H]1CCCN1C(=O)[C@H](Cc1ccc(O)cc1)NC(=O)[C@H](CCC(=O)O)NC(=O)[C@H](Cc1c[nH]c2ncccc12)NC(=O)[C@H](Cc1ccc(O)cc1)NC(=O)[C@@H](NC(=O)[C@H](CC(=O)O)NC(=O)[C@@H]1CSCc2cccc(c2)CSC[C@H](NC(C)=O)C(=O)N[C@@H](C)C(=O)N[C@@H](CCC(=O)O)C(=O)N[C@@H](CCCNC(=N)N)C(=O)N[C@@H](Cc2ccccc2)C(=O)N1)C(C)(C)C)c1ccccc1)C(N)=O [Compound R3166, [mXylyl(1,6)]Ac-C-A-E-R-F-C-D-Tbg-Y-azaTrp-E-Y-P-Phg-(Lys-C8)-NH2] has an IC50 of 17.5 nM.
Molecule CCC[C@H](NC(=O)[C@@H](NC(=O)[C@@H]1CCCN1C(=O)[C@H](Cc1ccc(O)cc1)NC(=O)[C@H](CCC(=O)O)NC(=O)[C@H](Cc1c[nH]c2ncccc12)NC(=O)[C@H](Cc1ccc(O)cc1)NC(=O)[C@@H](NC(=O)[C@H](Cc1nnn[nH]1)NC(=O)[C@@H]1CSCc2cccc(c2)CSC[C@H](NC(C)=O)C(=O)N[C@@H](C(C)C)C(=O)N[C@@H](CCC(=O)O)C(=O)N[C@@H](CCCNC(=N)N)C(=O)N[C@@H](Cc2ccccc2)C(=O)N1)C(C)(C)C)C1CCCCC1)C(N)=O [Compound R3168, [mXylyl(1,6)]Ac-C-V-E-R-F-C-Asp(T)-Tbg-Y-azaTrp-E-Y-P-Chg-Nvl-NH2] (Ac-CVERFC[Ala(1H-tetrazol-5-yl)][Tle]Y[Trp(7-aza)]EYP[Chg][Nva]-NH2; linker 1-6 via mXylylene) has an IC50 of 7.5 nM.
CCC[C@H](NC(=O)[C@@H](NC(=O)[C@@H]1CCCN1C(=O)[C@H](Cc1ccc(O)cc1)NC(=O)[C@H](CCC(=O)O)NC(=O)[C@H](Cc1c[nH]c2ncccc12)NC(=O)[C@H](Cc1ccc(O)cc1)NC(=O)[C@@H](NC(=O)[C@H](CC(=O)O)N(C)C(=O)[C@@H]1CSCc2cccc(c2)CSC[C@H](NC(C)=O)C(=O)N[C@@H](C(C)C)C(=O)N[C@@H](CCC(=O)O)C(=O)N[C@@H](CCCNC(=N)N)C(=O)N[C@@H](Cc2ccccc2)C(=O)N1)C(C)(C)C)C1CCCCC1)C(N)=O [Compound R3172, [mXylyl(1,6)]Ac-C-V-E-R-F-C-(N-Me)D-Tbg-Y-azaTrp-E-Y-P-Chg-Nvl-NH2] gave an IC50 of 12 nM.

Source: US10208089B2, “Modulation of complement activity” (priority 2014, dated 2019)
